Experiments:
Experiment in all cases: relative viability (nuclei count vs DMSO), 5 days (fraction); higher = more cells survive
Cediranib + Vorinostat = compound: COc1cc2c(Oc3ccc4[nH]c(C)cc4c3F)ncnc2cc1OCCCN1CCCC1 [Cediranib] + O=C(CCCCCCC(=O)Nc1ccccc1)NO [Vorinostat] (partner 1 µM)
Summary of the method: (§1)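 Lung cancer cell lines were pin-tool dosed in 1536-well plates on the day after seeding, with either a lone drug or a fixed anchor-drug dose plus five library-drug doses (not always all listed) in √10 steps. Nuclei were counted on 4× images after 5 days. Relative viability is the ratio of treated-well to vehicle-well nuclei counts, with each value a median of duplicate plates.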

Cediranib + Linsitinib = compound: COc1cc2c(Oc3ccc4[nH]c(C)cc4c3F)ncnc2cc1OCCCN1CCCC1 [Cediranib] + C[C@]1(O)C[C@@H](c2nc(-c3ccc4ccc(-c5ccccc5)nc4c3)c3c(N)nccn32)C1 [Linsitinib] (partner 1 µM)
Summary of the method: as §1

[1] = compound: O=C(C[C@H]1NCCC[C@@H]1O)Cn1cnc2cc(Br)c(Cl)cc2c1=O (racemic) [Halofuginone] + CCNC(=O)c1noc(-c2cc(C(C)C)c(O)cc2O)c1-c1ccc(CN2CCOCC2)cc1 [Luminespib] (partner 0.01 µM)
Summary of the method: as §1

Cediranib + Tozasertib = compound: COc1cc2c(Oc3ccc4[nH]c(C)cc4c3F)ncnc2cc1OCCCN1CCCC1 [Cediranib] + Cc1cc(Nc2cc(N3CCN(C)CC3)nc(Sc3ccc(NC(=O)C4CC4)cc3)n2)n[nH]1 [Tozasertib] (partner 0.1 µM)
Summary of the method: as §1

Row | Cell Line | relative viability (Cediranib + Vorinostat; first compound 0.04 µM) | relative viability (Cediranib + Vorinostat; first compound 0.1265 µM) | relative viability (Cediranib + Vorinostat; first compound 0.4 µM) | relative viability (Cediranib + Vorinostat; first compound 1.265 µM) | relative viability (Cediranib + Vorinostat; first compound 4 µM) | relative viability (Cediranib + Linsitinib; first compound 0.1265 µM) | relative viability (Cediranib + Linsitinib; first compound 0.4 µM) | relative viability (Cediranib + Linsitinib; first compound 1.265 µM) | relative viability (Cediranib + Linsitinib; first compound 4 µM) | relative viability ([1]; first compound 0.001 µM) | relative viability ([1]; first compound 0.003162 µM) | relative viability ([1]; first compound 0.01 µM) | relative viability ([1]; first compound 0.03162 µM) | relative viability ([1]; first compound 0.1 µM) | relative viability (Cediranib + Tozasertib; first compound 0.04 µM) | relative viability (Cediranib + Tozasertib; first compound 0.1265 µM) | relative viability (Cediranib + Tozasertib; first compound 0.4 µM) | relative viability (Cediranib + Tozasertib; first compound 1.265 µM) | relative viability (Cediranib + Tozasertib; first compound 4 µM) | relative viability (Cediranib + Linsitinib; first compound 0.04 µM)
1 | COR-L 105 | 0.921 | 0.847 | 0.733 | 0.766 | 0.91 | 0.909 | 0.946 | 0.972 | 0.938 | 0.668 | 0.606 | 0.694 | 0.639 | 0.532 | 0.392 | 0.364 | 0.343 | 0.329 | 0.388 | –
2 | LU99A | 0.456 | – | 0.51 | 0.407 | 0.578 | – | 0.565 | 0.518 | 0.573 | 0.244 | 0.281 | 0.238 | 0.239 | 0.174 | 0.292 | 0.285 | 0.285 | 0.286 | 0.292 | 0.517
3 | H3255 | 0.921 | – | 0.706 | – | 0.735 | 1.04 | 0.89 | 0.898 | 0.912 | 0.807 | 0.742 | 0.974 | 0.908 | 0.924 | 0.578 | – | 0.599 | 0.654 | 0.43 | 1.04
4 | NCI-H1734 | 0.718 | 0.805 | 0.77 | 0.768 | 0.911 | 0.847 | 0.928 | 0.776 | 1 | 0.198 | 0.199 | 0.224 | 0.233 | 0.187 | 0.262 | 0.246 | 0.278 | 0.277 | 0.245 | 0.932

Source: the supplement of paper PMC10307832
